Measured values: US20210213134A1, “THIOL-BASED MULTIVALENT DRUG DELIVERY COMPOSITIONS” (ORPRO THERAPEUTICS, INC., priority 2018, published 2021)

Key:
[1] = target: T1, insulin disulfides (heterodimeric insulin) (Homo sapiens, UniProt P01308); test: single-turnover insulin protein disulfide reduction assay (RP-HPLC of insulin heterodimer peak); format: biochemical; settings: relative GSH:TRX concentrations comparable to the airway, pH 8, FIG. 1
T1 construct: fully disulfide-bonded heterodimeric insulin
Method: Left side of FIG. 1—polyacrylamide gel electrophoresis of native human thioredoxin-1 (TRX). Lane 1: Molecular weight standards; Lane 2: Oxidized TRX; Lane 3: Oxidized TRX following reaction with dithiothreitol (DTT); Lane 4: Oxidized TRX following reaction with reduced glutathione (GSH); Lane 5: Oxidized TRX following reaction with GSH followed by DTT. Right side of FIG. 1—TRX was oxidized by exposure to ambient air for one week then incubated with either DTT or GSH at pH 8 for 1 hour followed by purification over a size exclusion column to remove unreacted free DTT or GSH after which the TRX was collected and used in a single-turnover insulin protein-disulfide reduction assay. […] After 30 min, 60 min and 120 minutes aliquots were taken and diluted with 0.1% TFA and 17 uM (final) iodoacetic acid and analyzed over RP-HPLC. Absorbance was monitored at 214 nm and the peak area of the insulin heterodimer fraction was determined at each time point to quantify TRX protein disulfide-reducing activity.
C35STRX was oxidized and Lys residues were conjugated to an azido-PEG linker. The conjugated material was then reduced and tested for molecular weight using SDS-PAGE (FIG. 5D) and MALDI-TOF (FIG. 5E) and activity assessed using a single-turnover insulin protein disulfide reduction assay. […]

[2] = inhalation vs. i.v.; cited from earlier work

T1 sequence (P01308 25-54 limits assumed): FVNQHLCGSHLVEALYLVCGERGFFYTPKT
T1 sequence (P01308 90-110 limits assumed): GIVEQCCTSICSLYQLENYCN

N[C@@H](CCC(=O)N[C@@H](CS)C(=O)NCC(=O)O)C(=O)O [GSH, reduced glutathione, reference compound]
restoration of insulin disulfide bond reduction activity to oxidized TRX [1]: capable of restoring insulin disulfide bond reduction activity to oxidized TRX

CN[C@H](CC(C)C)C(=O)N[C@H]1C(=O)N[C@@H](CC(N)=O)C(=O)N[C@H]2C(=O)N[C@H]3C(=O)N[C@H](C(=O)N[C@H](C(=O)O)c4cc(O)cc(O)c4-c4cc3ccc4O)[C@H](O)c3ccc(c(Cl)c3)Oc3cc2cc(c3O[C@@H]2O[C@H](CO)[C@@H](O)[C@H](O)[C@H]2O[C@H]2C[C@](C)(N)[C@H](O)[C@H](C)O2)Oc2ccc(cc2Cl)[C@H]1O [vancomycin]
systemic exposure level by inhalation delivery relative to equivalent i.v. [2]: ~50%
